US6346529B1, “Antiviral therapy using thiazine dyes” (Oklahoma Medical Research Foundation, priority 1988, dated 2002)
Like-named read-outs stand apart in the source and are kept apart here.

Assays:
Format in all cases: cell-based
HSV-2 (G strain) = assay: HSV plaque reduction assay in Vero cells, HSV-2; conditions: read-out: Antiviral Effect: EC50 HSV-2
Description: (§1) HSV Preparation: Confluent HEp-2 cells, in a roller bottle (Falcon, 850 cm^2), were infected at an input multiplicity of 0.01 PFU per cell (to minimize production of defective viruses). During the two-hour absorption period, the cells were exposed to the virus inoculum diluted in absorption buffer (10 ml PBS containing 1% newborn calf serum and 0.1% glucose). The virus inoculum was then removed and replaced with Hanks' Minimum Essential Medium (MEM) containing 2% inactivated newborn calf serum, penicillin (100 U/ml) and streptomycin (100 μg/ml) (P and S), sodium bicarbonate (2 g/L) and HEPES (25 mM) (maintenance medium). The infected cells were incubated at 37° C. for 3 to 4 days, until the cells could be easily shaken from the plastic surface of the culture bottles. The cells were then collected by centrifugation, suspended in a small volume of spent culture fluid (5 ml per 2×10^8 cells) and sonicated 3 times for one min on ice. The disrupted cells were centrifuged (2,000 g for 15 min at 4° C. and the supernatant was diluted with an equal volume of sterile skimmed milk (as stabilizer) and aliquots were frozen at −70° C.
(§2) HSV Plaque Reduction Assay: Near confluent Vero (African Green Monkey) cells in 6-well plates were infected with 100 μl virus diluted in absorption buffer to give 100-200 plaques per well. The plates were then incubated at 37° C. for 1 hour with intermittent rocking every 15 minutes. The inoculum was aspirated and the compounds at different concentrations (dissolved in maintenance medium) were added to replicate wells. For these assays, 0.1% pooled human gamma globulin was included in the media. The plates were placed in 5% CO2-95% air incubator and the plaques were allowed to develop for 48 h prior to fixation (buffered 10% Formalin acetate), staining (0.5% crystal violet in 20% EtOH/H2O) and enumeration. The degree of inhibition (percent plaques of control) was calculated by counting the mean plaque counts for the different drug dilutions. […] For routine antiviral drug screening, we used the F strain of HSV-1 and the G strain of HSV-2 (Ejercito, et al., “Characterization of Herpes Simplex virus Strains Differing in Their Effect on Social Behavior of Infected Cells,” J. Gen. Virol. 2, 357-364 (1968)). […] Acyclovir (ACV) was used as a positive control for the studies on HSV.
(§3) Median-Effect Method: EC50 and IC50 values were obtained by analysis of the data using the median-effect equation (Chou, T., et al., “Quantitative Analysis of Dose-Effect Relationships: The Combined Effects of Multiple Drugs or Enzyme Inhibitors,” Adv. Enz. Regul. 22, 27-55 (1984).

HIV-1 (strain LAV-1) = assay: Inhibition of HIV-1 replication in human PBMC (supernatant RT activity); conditions: Human immunodeficiency virus 1, PBMC
Description: Cells: Human peripheral blood mononuclear cells (PBMC) from healthy HIV-1 seronegative and hepatitis B virus seronegative donors were isolated by Ficoll-Hypaque discontinuous gradient centrifugation at 1,000×g for 30 minutes, washed twice in phosphate-buffered saline (pH 7.2; PBS), and pelleted at 300×g for 10 minutes. Before infection, the cells were stimulated by phytohemagglutinin (PHA) at a concentration of 16.7 μg/ml, and 4 mM sodium bicarbonate buffer.
Retrovirus: HIV-1 (strain LAV-1) was obtained from Dr. P. Feorino (Centers for Disease Control, Atlanta, Ga.). The virus was propagated in human PBMC using RPMI 1640 medium, as described previously by McDougal, et al., (“Immunoassay for the detection and quantitation of infectious human retrovirus, lymphadenopathy-associated virus (LAV),” J. Immun. Meth. 76, 171-183, 1985) without PBA or fungizone and supplemented with 7% (v/v) interleukin-2 (Advanced Biotechnologies, Silver Spring, Md.), 7 μg/ml DEAE-dextran (Pharmacia, Uppsala, Sweden), and 370 U/ml anti-human leukocyte (alpha) interferon (ICN, Lisle, Ill.). Virus obtained from cell-free culture supernatant was titrated and stored in aliquots at −70° C. until use.
Inhibition of Virus Replication in Human PBMC: Uninfected PHA-stimulated human PBMC were uniformly distributed among 25 cm^2 flasks to give a 5 ml suspension containing about 2×10^6 cells/ml. Suitable dilutions of virus were added to infect the cultures. The mean reverse transcriptase (RT) activity of the inocula was 50,000 dpm/ml corresponding to about 100 TCID50, as determined by Groopman, et al., (1987), “Characterization of Serum Neutralization Response to the Human Immunodeficiency Virus (HIV),” AIDS Res. Human Retro. 3, 71-85. The drugs, at twice their final concentrations in 5 ml of RPMI 1640 medium (supplemented as described above), were added to the cultures. Uninfected and untreated PBMC at equivalent cell densities were grown in parallel as controls. The cultures were maintained in a humidified 5% CO2-95% air incubator at 37° C. for six days after infection at which point all cultures were sampled for supernatant RT activity.
RT Activity Assay: A […] aliquot of supernatant from each culture was clarified of cells at 300×g for 10 minutes. […]
The RT assay was performed in 96-well microtiter plates, as described by Spira, et al. (1987), “Micromethod for Assaying the Reverse Transcriptase of LAV-HTLV-III/Lymphadenopathy-Associated Virus,” J. Clin. Microbiol. […] Four ml of scintillation fluid (Econofluor, NEN Research Products, Boston, Mass.) were added and the amount of radioactivity in each sample was determined using a Packard Tri-Carb liquid scintillation analyzer (model 2,000CA). […]

HSV-1 (F strain) = assay: HSV plaque reduction assay in Vero cells, HSV-1; conditions: read-out: Antiviral Effect: EC50 HSV-1
Description: as §1, §2, §3

Row | Structure (SMILES) | EC50 (HSV-2 (G strain); Human alphaherpesvirus 2, Vero, dark) [nM] | EC50 (HSV-2 (G strain); Human alphaherpesvirus 2, Vero, light) [nM] | EC50 (HIV-1 (strain LAV-1); light, read-out: Antiviral Effect: EC50 HIV-1) [nM] | EC50 (HSV-1 (F strain); Human alphaherpesvirus 1, Vero, dark) [nM] | EC50 (HSV-1 (F strain); Human alphaherpesvirus 1, Vero, light) [nM] | EC50 (HSV-2 (G strain); Human alphaherpesvirus 2, Vero) [nM] | EC50 (HSV-2 (G strain); dark) [nM] | EC50 (HIV-1 (strain LAV-1); read-out: Antiviral Effect: EC50 HIV-1, dark) [nM] | EC50 (HIV-1 (strain LAV-1); read-out: Antiviral Effect: EC50 HIV-1, light) [nM] | EC50 (HSV-1 (F strain); Human alphaherpesvirus 1, Vero) [nM] | EC50 (HSV-1 (F strain); dark) [nM]
1 | Nc1nc2c(ncn2COCCO)c(=O)[nH]1 [ACV, Acyclovir] | 160 | 510 | > 100000 | 13 | 22 |  |  |  |  |  | 
2 | CN(C)c1ccc2nc3ccc(N(C)C)cc3[s+]c2c1.[Cl-] [MB, 3,7-Bis(dimethylamino)phenothiazin-5-ium chloride] |  |  |  |  |  | ≥ 10000 | ≥ 10000 | 140 | 28 | ≥ 10000 | ≥ 10000
